Experimental data: paper PMC6009907, “Synthesis, characterization and in vitro inhibition of metal complexes of pyrazole based sulfonamide on human erythrocyte carbonic anhydrase isozymes I and II” (Journal of Enzyme Inhibition and Medicinal Chemistry, 2017)
pIC50, pKi: −log10 of the molar value.

Experiments:
Format in all cases: biochemical
hCA-I [1] = molecular target: T1, hCA-I (Homo sapiens, UniProt P00915); assay: Determination of Ki values (esterase activity, Lineweaver–Burk), hCA-I; conditions: five substrate concentrations, Lineweaver–Burk plot
T1 construct: Purification of isoenzymes hCA-I and hCA-II from human erythrocytes; from tissue; host or cells: human erythrocytes (blood)
T1 sequence (P00915 whole entry): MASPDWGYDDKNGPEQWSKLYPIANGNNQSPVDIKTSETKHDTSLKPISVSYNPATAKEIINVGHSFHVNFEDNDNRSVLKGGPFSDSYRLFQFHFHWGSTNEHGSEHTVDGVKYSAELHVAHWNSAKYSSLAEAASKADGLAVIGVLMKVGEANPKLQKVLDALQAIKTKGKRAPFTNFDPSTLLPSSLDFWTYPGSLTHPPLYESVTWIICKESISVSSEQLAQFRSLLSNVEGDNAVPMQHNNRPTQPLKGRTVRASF
Protocol: (§1) In order to purify hCA-I and hCA-II isoenzymes, first, human blood was centrifuged at 1500 rpm for 20 min, and after the removal of the plasma, the erythrocytes were washed with an isotonic solution (0.9% NaCl). After that, the erythrocytes were lysed with 1.5 volume of ice-cold water. The lysate was centrifuged at 20 000 rpm for 30 min to remove cell membranes and non-lysed cells. […] After extensive washing with 25 mM tris–HCl/22 mM Na2SO4 (pH 8.7), the hCA-I and hCA-II isoenzymes were eluted with 1.0 M NaCl/25 mM Na2HPO4 (pH 6.3) and 0.1 M CH3COONa/0.5 M NaClO4 (pH 5.6).[45]^,[46] The amount of purified protein was estimated by the Bradford method[47] and SDS-PAGE was carried out to determine whether the elute containing the enzyme[48] (Supplemental Figure 1).
(§2) The method for determination of Ki values is described elsewhere.[52–56] […] Regression analysis graphs were drawn by plotting inhibitor concentrations versus enzyme activity by using Microsoft Excel Program.

hCA-II [2] = molecular target: T2, hCA-II (Homo sapiens, UniProt P00918); assay: Esterase activity assay (4-nitrophenylacetate, 348 nm), hCA-II; conditions: hCA-II purified from human erythrocytes, 25 °C, pH 7.4
T2 construct: Purification of isoenzymes hCA-I and hCA-II from human erythrocytes; from tissue; host or cells: human erythrocytes (blood)
Protocol: as §1
(§3) The enzymatic reaction, in a total volume of 3.0 mL, contained 1.4 mL of 0.05 M tris–SO4 buffer (pH 7.4), 1 mL of 3 mM 4-nitrophenylacetate, 0.5 mL H2O and 0.1 mL enzyme solution. A reference measurement was obtained by preparing the same cuvette without enzyme solution.
as §2

hCA-I [3] = molecular target: T1, hCA-I; assay: CO2-hydratase activity assay (Wilbur and Anderson), hCA-I; conditions: hCA-I purified from human erythrocytes; CO2 hydration
Protocol: as §1
(§4) Carbonic anhydrase activity was assayed by following the hydration of CO2 according to the method described by Wilbur and Anderson.[49] CO2-hydratase activity as an enzyme unit (EU) was calculated by using the equation ((t0−tc)/tc) where t0 and tc are the times for pH change of the nonenzymatic and the enzymatic reactions, respectively.

hCA-I [4] = molecular target: T1, hCA-I; assay: Esterase activity assay (4-nitrophenylacetate, 348 nm), hCA-I; conditions: hCA-I purified from human erythrocytes, 25 °C, pH 7.4
Protocol: as §1, §3, §2

hCA-II [5] = molecular target: T2, hCA-II; assay: CO2-hydratase activity assay (Wilbur and Anderson), hCA-II; conditions: hCA-II purified from human erythrocytes; CO2 hydration
Protocol: as §1, §4

hCA-II [6] = molecular target: T2, hCA-II; assay: Determination of Ki values (esterase activity, Lineweaver–Burk), hCA-II; conditions: five substrate concentrations, Lineweaver–Burk plot
Protocol: as §1, §2

pKi (hCA-I [1]): 5.96 | pIC50 (hCA-II [2]): 5.25 | pIC50 (hCA-I [3]): 5.85 | pIC50 (hCA-I [4]): 5.55 | pIC50 (hCA-II [5]): 6.05 | pKi (hCA-II [6]): 5.28
SMILES: CCOC(=O)c1c(C(=O)Nc2nnc(S(N)(=O)=O)s2)nn(-c2cccc([N+](=O)[O-])c2)c1-c1ccccc1 [compound 1, ethyl 1-(3-nitrophenyl)-5-phenyl-3-((5-sulfamoyl-1,3,4-thiadiazol-2-yl)carbamoyl)-1H-pyrazole-4-carboxylate]
